Data from paper PMC10167756 (Journal of medicinal chemistry, 2023).
Where a name gives a salt, the structure may show the parent alone.

Target: T1, Spns2 (Spinster homolog 2) (Mus musculus, UniProt Q91VM4)
T1 sequence (Q91VM4 1-549): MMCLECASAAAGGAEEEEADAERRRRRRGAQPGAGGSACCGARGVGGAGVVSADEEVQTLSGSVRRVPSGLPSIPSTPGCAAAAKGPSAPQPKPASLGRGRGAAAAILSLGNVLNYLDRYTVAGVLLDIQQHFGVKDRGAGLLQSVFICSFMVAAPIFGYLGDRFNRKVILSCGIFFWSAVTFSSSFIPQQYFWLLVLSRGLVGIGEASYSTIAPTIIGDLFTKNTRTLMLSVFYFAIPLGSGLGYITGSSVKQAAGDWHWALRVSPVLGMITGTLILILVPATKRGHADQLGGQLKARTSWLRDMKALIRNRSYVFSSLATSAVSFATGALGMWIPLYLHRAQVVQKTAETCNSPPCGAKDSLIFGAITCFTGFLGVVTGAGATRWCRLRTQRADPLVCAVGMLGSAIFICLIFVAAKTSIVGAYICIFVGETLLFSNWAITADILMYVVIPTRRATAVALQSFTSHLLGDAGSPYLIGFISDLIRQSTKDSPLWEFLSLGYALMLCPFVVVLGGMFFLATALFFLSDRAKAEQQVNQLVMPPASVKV
Experiment: S1P release assay in mouse Spns2-transfected HeLa cells, % inhibition at […]
Type: cell-based

inhibition at 0.3 µM: 50 ± 4%
Structure (SMILES): CCCCCCCCCc1ccc2oc(NC[C@H]3CCNC3)nc2c1 [35p, (S)-5-nonyl-N-(pyrrolidin-3-ylmethyl)benzo[d]oxazol-2-amine hydrochloride]
